Experimental data: patent US12240844B2 (Voronoi, Inc., priority 2019, dated 2025)
pIC50: −log10 of the molar value.

Legend:
human GST-CLK1 (129-end) = biological target: T1, human GST-CLK1 (129-end) (Homo sapiens, UniProt P49759); test: GST-CLK1 enzyme inhibition, ADP-Glo kinase assay; type: biochemical; conditions: ATP 10 uM
T1 construct: purified human GST-CLK1 (129-end, Signalchem) enzyme; GST; purchased Signalchem
Summary of the method: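 GST-CLK1 (129-end, 3 ng) reacted with 10 uM ATP and substrate in 40 mM Tris-HCl pH 7.4, 20 mM MgCl2, 0.5 mg/mL BSA, 50 uM DTT, 1 h at 25° C. ADP-Glo luminescence normalised to solvent control; IC50 from triplicate data.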

LRRK2 = LRRK2 (Homo sapiens, UniProt Q5S007); test: LRRK2 enzyme inhibition, ADP-Glo kinase assay; type: biochemical; parameters: purchased Invitrogen PR8604B
Summary of the method: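 Purified human LRRK2 (25 ng) in 40 mM Tris-HCl pH7.4, 20 mM MgCl2, 0.5 mg/ml BSA, 50 μM DTT with 10 μM ATP and substrate ([…]), 2 h at 25° C. Final compound 50 to 0.000001024 μM, 12-point dilution. ADP-Glo luminescence vs solvent control; IC50 (nM).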

[1] = biological target: T2, LRRK2, LRRK2 (G2019S), DYRK1, CLK1 and TTK kinases (Homo sapiens, UniProt Q13627); test: Enzyme IC50 by Kinase HotSpot service (Reaction Biology Corporation), values marked with *; type: biochemical; conditions: DYRK1, ATP 10 uM
T2 construct: other: DYRK1; Kinase HotSpot service (Reaction Biology), ATP 10 uM
Method: Meanwhile, the enzyme IC50 measurement for some compounds was performed using Kinase HotSpot service (Reaction Biology Corporation); during the test, the ATP concentration was 10 uM, where all were conducted under the same condition; and the concentration of the compound was measured by giving a 3-fold concentration gradient with the highest concentration of […], where the values measured using Kinase HotSpot service (Reaction Biology Corporation) were marked with “*”.
All experimental methods were performed as provided in Kinase HotSpot Customer Protocol (http://www.reactionbiology.com//Kinase_Assay_Protocol).
(§1) In the table below, the following designations were used for the evaluation of enzyme inhibitory ability.

human DYRK1A and Tau = test: Tau phosphorylation inhibition, ClariCELL Kinase Cell-Based Assay (Carnabio)
Summary of the method: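 HEK293 cells transiently expressing human DYRK1A and Tau were exposed to compound, then lysed. Released Tau was captured on plate and its phosphorylation quantified by ELISA with a phospho-Tau-specific antibody.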

MDA-MB-231 cell line = test: MDA-MB-231 cancer cell proliferation inhibition (Cell Titer-Glo); type: cell-based; conditions: Homo sapiens, MDA-MB-231 triple-negative breast cancer cell line, 72 hours
Summary of the method: (§2)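 GI50 comes from CellTiter-Glo luminescence, read 10 min after reagent addition at RT, following 72 h compound treatment. Eleven concentrations were used (⅓ steps, highest 10 μM final) on 2000 cells/well. MDA-MB-231 and MDA-MB-468 were grown in DMEM, SHP-77 in RPMI.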

LRRK2 (G2019S) = LRRK2 (G2019S) (Homo sapiens, UniProt Q5S007, G2019S); test: LRRK2 G2019S enzyme inhibition, ADP-Glo kinase assay; type: biochemical; parameters: purchased SignalChem L10-12GG
Summary of the method: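 Purified human LRRK2 G2019S (16 ng) with 25 μM ATP and 0.2 μg substrate, 2 h at 25° C in 40 mM Tris-HCl pH 7.4, 20 mM MgCl2, 0.5 mg/ml BSA, 50 μM DTT; compound at 12 final concentrations from 50 μM downward. ADP-Glo luminescence versus solvent control gave IC50 (nM).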

TTK = biological target: T3, TTK (Homo sapiens, UniProt P33981); test: TTK enzyme inhibition, ADP-Glo kinase assay; type: biochemical; parameters: purchased Signalchem T20-10G; conditions: ATP 5 μM
T3 sequence (P33981 1-857): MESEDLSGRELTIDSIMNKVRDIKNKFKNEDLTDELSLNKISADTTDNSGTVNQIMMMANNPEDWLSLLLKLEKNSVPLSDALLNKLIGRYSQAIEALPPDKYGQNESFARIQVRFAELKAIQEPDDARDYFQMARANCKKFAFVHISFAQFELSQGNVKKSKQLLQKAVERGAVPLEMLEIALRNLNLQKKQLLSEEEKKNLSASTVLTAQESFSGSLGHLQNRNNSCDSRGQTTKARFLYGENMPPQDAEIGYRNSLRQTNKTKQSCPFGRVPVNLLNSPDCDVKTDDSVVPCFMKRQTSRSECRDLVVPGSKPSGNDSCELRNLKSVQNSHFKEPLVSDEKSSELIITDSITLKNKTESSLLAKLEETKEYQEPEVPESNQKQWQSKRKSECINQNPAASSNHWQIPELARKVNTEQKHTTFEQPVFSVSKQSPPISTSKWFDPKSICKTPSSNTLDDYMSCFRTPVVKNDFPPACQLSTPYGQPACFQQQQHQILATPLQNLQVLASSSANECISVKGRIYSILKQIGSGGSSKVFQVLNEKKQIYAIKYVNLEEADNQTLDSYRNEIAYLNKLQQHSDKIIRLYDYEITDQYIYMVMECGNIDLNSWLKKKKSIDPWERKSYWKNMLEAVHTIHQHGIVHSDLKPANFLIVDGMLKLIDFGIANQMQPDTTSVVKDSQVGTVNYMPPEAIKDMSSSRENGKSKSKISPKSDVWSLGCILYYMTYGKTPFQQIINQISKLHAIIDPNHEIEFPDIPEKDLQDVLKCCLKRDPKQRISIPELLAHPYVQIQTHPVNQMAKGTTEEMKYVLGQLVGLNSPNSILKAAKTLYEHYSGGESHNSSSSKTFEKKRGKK
Method: In order to evaluate the inhibitory activity of the compounds according to the present invention on LRRK2, LRRK2 (G2019S), DYRK1, CLK1 and TTK kinases, the following experiment was performed.
Example compounds were reacted with the purified human TTK (Signalchem #T20-10G) enzyme to evaluate the enzyme inhibitory ability as follows. The reaction buffer was used as the composition of 40 mM Tris-HCl pH7.4, 20 mM MgCl2, 0.1 mg/ml BSA (5× kinase buffer, Signalchem #K03-09) and 50 μM DTT (Signalchem #D86-09B), and the reaction of all test materials was performed on the reaction buffer. The compound was diluted with 10 mM DMSO stock in […] by a serial dilution method, and the enzyme activity was measured at the final compound concentrations of 1, 0.333333, 0.111111, 0.037037, 0.012346, 0.004115, 0.001372, 0.000457, 0.000152, 0.000051 and 0.000017 μM. In the test, the human TTK (7.5 ng) enzyme was reacted with the purified ATP (5 μM, Promega #V6930) and an MBP enzyme substrate (0.2 μg, Signalchem M42-51N) at 25° C. for 4 hours, and then the enzyme activity was identified using the in vitro ADP-Glo™ kinase assay (Promega #V6930). The enzyme activity reaction liquid, an ADP-Glo reaction liquid and an enzyme potency detection solution were reacted in a ratio of 2:2:1, and the degree of inhibition of enzyme activity was measured by luminescence. The degree of inhibition of enzyme activity according to the treatment concentrations of the respective compounds was calculated based on the luminescence degree of the enzyme activity of a solvent control group that was not treated with the compound, where the concentration of each compound to inhibit enzyme activity inhibition by 50% was determined as an IC50 (nM) value and obtained using Prism (Version 8.2, GraphPad) software.
as §1

SHP-77 = SHP-77 cancer cell proliferation inhibition (Cell Titer-Glo); type: cell-based; conditions: Homo sapiens, SHP77, SHP-77 small cell lung cancer cell line, 72 hours
Summary of the method: as §2

[2] = biological target: T4, human GST-DYRK1A (full length) (Homo sapiens, UniProt Q13627); test: GST-DYRK1A enzyme inhibition, ADP-Glo kinase assay; type: biochemical; conditions: read-out: DYRK1 IC50
T4 construct: purified human GST-DYRK1A (full length, Thermo scientifics) enzyme; GST; purchased Thermo scientifics
Summary of the method: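 Full-length human GST-DYRK1A (10 ng) incubated with 10 uM ATP and specific substrate for 1 h at 25° C in 40 mM Tris-HCl pH 7.4, 20 mM MgCl2, 0.5 mg/mL BSA, 50 uM DTT. ADP formation read by ADP-Glo luminescence; IC50 (nM) versus solvent control, triplicate.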

IL-6 = IL-6 secretion inhibition in LPS-treated THP-1 cells (ELISA); type: cell-based; conditions: Homo sapiens, compound 0.5 μM, LPS 500 ng/ml, 24 hours, read-out: THP1/IL6 (% inhib)
Method: (§3) In order to evaluate the cytokine secretion inhibitory efficacy of mononuclear cells, THP-1 cells (ATCC, #TIB-202) as a human-derived monocyte cell line were cultured in RPMI-1640 (Hyclone, SH30027.01) media in which 10% fetal bovine serum (Hyclone, SH30084.03), 1% penicillin streptomycin (Welgene, LS202-02) and 50 μM 2-Mercaptoethanol (Gibco, #21985023) were contained. In the test, 1.5-2×10^5 cells/250 μl per each well were dispensed in a 48-well plate (SPL, #30048) and incubated in an incubator at 37° C. and 5% CO2 for 16 hours, and then the compounds were diluted in DMSO so that the final concentration was 0.5 μM. It was treated with Lipopolysaccharides (LPS) (sigma, #L6529) […]. After treatment with the compound, the LPS was treated so that the final concentration was 500 ng/ml, and then the cell culture fluid was collected after culturing for 24 hours, and the degrees of the cytokines IL-6 (R&D system, #D6050) and TNF-α (R&D system, #DTA00D) contained in the culture fluid were collected using each ELISA kit. After performing the experiment according to the manufacturer's instructions, the absorbance at 450 nm was measured and analyzed using a microplate reader.

TNF-α = TNF-α secretion inhibition in LPS-treated THP-1 cells (ELISA); type: cell-based; conditions: Homo sapiens, compound 0.5 μM, LPS 500 ng/ml, 24 hours, read-out: THP-1/TNF-a (% inhib)
Method: as §3

T1 sequence (P49759 129-484 limits assumed): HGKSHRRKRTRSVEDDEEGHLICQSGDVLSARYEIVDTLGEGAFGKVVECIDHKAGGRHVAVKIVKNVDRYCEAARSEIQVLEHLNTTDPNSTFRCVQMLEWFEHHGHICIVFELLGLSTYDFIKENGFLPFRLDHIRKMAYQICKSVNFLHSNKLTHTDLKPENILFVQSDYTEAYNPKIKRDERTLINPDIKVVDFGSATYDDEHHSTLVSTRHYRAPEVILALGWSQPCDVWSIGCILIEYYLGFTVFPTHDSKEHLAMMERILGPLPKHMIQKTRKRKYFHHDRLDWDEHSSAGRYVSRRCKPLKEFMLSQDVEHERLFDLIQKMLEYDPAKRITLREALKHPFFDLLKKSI
LRRK2, sequence (Q5S007 970-2527 limits assumed): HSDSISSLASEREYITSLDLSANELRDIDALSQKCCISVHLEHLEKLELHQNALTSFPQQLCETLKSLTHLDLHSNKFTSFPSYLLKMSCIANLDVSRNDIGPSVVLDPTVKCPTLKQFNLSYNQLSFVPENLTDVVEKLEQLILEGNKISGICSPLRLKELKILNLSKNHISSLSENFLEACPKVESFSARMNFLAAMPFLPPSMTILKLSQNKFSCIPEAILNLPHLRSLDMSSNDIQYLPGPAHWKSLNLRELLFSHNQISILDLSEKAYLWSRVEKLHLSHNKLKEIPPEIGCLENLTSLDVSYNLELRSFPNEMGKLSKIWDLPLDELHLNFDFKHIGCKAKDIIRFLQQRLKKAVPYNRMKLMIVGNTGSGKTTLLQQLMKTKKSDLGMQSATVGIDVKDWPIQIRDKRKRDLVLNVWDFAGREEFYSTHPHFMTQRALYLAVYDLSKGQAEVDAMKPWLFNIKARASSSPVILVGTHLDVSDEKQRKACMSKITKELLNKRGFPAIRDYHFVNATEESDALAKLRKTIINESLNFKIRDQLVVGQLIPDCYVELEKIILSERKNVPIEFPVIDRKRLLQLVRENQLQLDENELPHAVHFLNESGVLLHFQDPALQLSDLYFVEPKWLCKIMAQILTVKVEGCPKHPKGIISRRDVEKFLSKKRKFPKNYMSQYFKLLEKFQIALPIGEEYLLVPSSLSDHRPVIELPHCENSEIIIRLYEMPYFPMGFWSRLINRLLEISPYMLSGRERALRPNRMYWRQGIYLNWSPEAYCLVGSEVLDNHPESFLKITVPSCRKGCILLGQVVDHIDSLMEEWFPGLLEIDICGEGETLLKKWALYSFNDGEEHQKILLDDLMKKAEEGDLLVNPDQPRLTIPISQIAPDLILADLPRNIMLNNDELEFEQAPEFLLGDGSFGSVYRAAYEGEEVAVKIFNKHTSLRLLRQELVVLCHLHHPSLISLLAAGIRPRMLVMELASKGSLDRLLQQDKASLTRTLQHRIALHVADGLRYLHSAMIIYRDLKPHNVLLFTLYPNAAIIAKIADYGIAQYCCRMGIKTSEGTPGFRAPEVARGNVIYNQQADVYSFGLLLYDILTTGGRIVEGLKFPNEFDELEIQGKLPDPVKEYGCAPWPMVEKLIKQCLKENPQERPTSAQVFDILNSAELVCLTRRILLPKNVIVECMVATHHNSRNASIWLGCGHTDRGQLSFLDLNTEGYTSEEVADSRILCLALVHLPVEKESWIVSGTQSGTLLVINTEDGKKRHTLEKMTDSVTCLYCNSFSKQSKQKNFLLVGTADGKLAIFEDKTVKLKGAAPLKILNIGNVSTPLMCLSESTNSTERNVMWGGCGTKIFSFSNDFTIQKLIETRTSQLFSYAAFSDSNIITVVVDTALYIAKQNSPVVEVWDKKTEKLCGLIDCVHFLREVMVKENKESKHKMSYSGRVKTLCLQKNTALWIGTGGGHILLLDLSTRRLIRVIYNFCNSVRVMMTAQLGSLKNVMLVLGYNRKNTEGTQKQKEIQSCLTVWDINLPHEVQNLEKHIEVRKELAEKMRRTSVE
LRRK2 (G2019S), sequence (Q5S007 970-2527 G2019S limits assumed): as the sequence (Q5S007 970-2527 limits assumed) above, with G1050S counted along it

Compound	pIC50 (human GST-CLK1 (129-end))	pIC50 (LRRK2)	pIC50 [1]	inhibition at 0.25 µM (human DYRK1A and Tau) [%]	inhibition at 0.5 µM (human DYRK1A and Tau) [%]	inhibition at 1 µM (human DYRK1A and Tau) [%]	GI50 (MDA-MB-231 cell line) [nM]	pIC50 (LRRK2 (G2019S))	pIC50 (TTK)	GI50 (SHP-77) [nM]	pIC50 [2]	inhibition at 0.5 µM (IL-6) [%]	inhibition at 0.5 µM (TNF-α) [%]
COc1cc(P2(=O)CCN(C3COC3)CC2)ccc1Nc1cc(C2CC2)c2c(C(F)(F)F)c[nH]c2n1 [Example 47, 4-(4-((4-cyclopropyl-3-(trifluoromethyl)-1H-pyrrolo[2,3-b]pyridin-6-yl)amino)-3-methoxyphenyl)-1-(oxetan-3-yl)-1,4-azaphosphinane 4-oxide]	> 7.00	6.52 to 7.00	> 7.00	3.7	15	22.4	301 to 1000						
COc1cc(S(C)(=O)=O)ccc1Nc1cc(C2CC2)c2c(C(F)(F)F)c[nH]c2n1 [Example 224, 4-cyclopropyl-N-(2-methoxy-4-(methylsulfonyl)phenyl)-3-(trifluoromethyl)-1H-pyrrolo[2,3-b]pyridin-6-amine]	6.00 to 6.52	6.00 to 6.52	> 7.00					6.00 to 6.52					
COc1cc(P2(=O)CCN(C3CCOCC3)CC2)ccc1Nc1cc(C2CC2)c2c(C(F)(F)F)c[nH]c2n1 [Example 102, 4-(4-((4-cyclopropyl-3-(trifluoromethyl)-1H-pyrrolo[2,3-b]pyridin-6-yl)amino)-3-methoxyphenyl)-1-(tetrahydro-2H-pyran-4-yl)-1,4-azaphosphinane 4-oxide]	6.00 to 6.52		> 7.00										
O=C(c1ccc(Nc2cc(C3CC3)c3c(C(F)(F)F)c[nH]c3n2)c2c1OCCO2)N1CCN(C2COC2)CC1 [Example 101, (8-((4-cyclopropyl-3-(trifluoromethyl)-1H-pyrrolo[2,3-b]pyridin-6-yl)amino)-2,3-dihydrobenzo[b] [1,4]dioxin-5-yl)(4-(oxetan-3-yl)piperazin-1-yl)methanone]	6.00 to 6.52		> 7.00	9.9	11.2	20.7			> 7.00				
COCCNc1cc(Nc2ccc(S(=O)(=O)N3CCC(N4CCOCC4)CC3)cc2OC)nc2[nH]cc(C#N)c12 [Example 140, 6-((2-methoxy-4-((4-morpholinopiperidin-1-yl)sulfonyl)phenyl)amino)-4-((2-methoxyethyl)amino)-1H-pyrrolo[2,3-b]pyridine-3-carbonitrile]	> 7.00	> 7.00	> 7.00				< 50	> 7.00		51 to 100			
CNc1cc(Nc2ccc(P3(=O)CCN(C4COC4)CC3)cc2OC)nc2[nH]cc(C(F)(F)F)c12 [Example 212, 4-(3-methoxy-4-((4-(methylamino)-3-(trifluoromethyl)-1H-pyrrolo[2,3-b]pyridin-6-yl)amino)phenyl)-1-(oxetan-3-yl)-1,4-azaphosphinane 4-oxide]	> 7.00	> 7.00					301 to 1000				> 7.00	29.1	2.7
COc1cc(P(C)(C)=O)ccc1Nc1cc(C2CC2)c2c(C(F)(F)F)c[nH]c2n1 [Example 219, (4-((4-cyclopropyl-3-(trifluoromethyl)-1H-pyrrolo[2,3-b]pyridin-6-yl)amino)-3-methoxyphenyl) dimethylphosphine oxide]	6.00 to 6.52		> 7.00										
